Data from ChEMBL document CHEMBL4823311, “Optimization of Naphthyridones into Selective TATA-Binding Protein Associated Factor 1 (TAF1) Bromodomain Inhibitors” (ACS Med Chem Lett, 2021).
Converted amounts (≈) assume the structure as drawn.

Key:
[1] = molecular target: T1, Transcription initiation factor TFIID subunit 1 (Homo sapiens, UniProt P21675); test: Inhibition of TAF1 bromodomain 2 (unknown origin) by TR-FRET assay
[2] = Lipophilicity, logD of the compound at pH 7.4 by chromatographic method; format: physicochemical; conditions: buffer
[3] = molecular target: T2, Bromodomain-containing protein 4 (Homo sapiens, UniProt O60885); test: Inhibition of BRD4 BD1 (unknown origin) by TR-FRET assay
[4] = Passive permeability of the compound across artificial membrane by AMP assay; format: ADME; conditions: PAMPA; read-out: permeability
[5] = molecular target: T1, Transcription initiation factor TFIID subunit 1; test: Inhibition of human partial length TAF1 bromodomain 2 (D1521 to D1656 residues) expressed in bacterial expression system by BROMOscan assay
[6] = Intrinsic clearance in human microsomes; format: ADME, Microsome
[7] = molecular target: T2, Bromodomain-containing protein 4; test: Inhibition of human partial length BRD4 BD2 (K333 to E460 residues) expressed in bacterial expression system by BROMOscan assay
[8] = molecular target: Chromatin remodeling regulator CECR2 (Homo sapiens, UniProt Q9BXF3); test: Inhibition of human partial length CECR2 (P423 to D543 residues) expressed in bacterial expression system by BROMOscan assay
Chain of Chromatin remodeling regulator CECR2 (Q9BXF3 whole entry, the tested form may be a part): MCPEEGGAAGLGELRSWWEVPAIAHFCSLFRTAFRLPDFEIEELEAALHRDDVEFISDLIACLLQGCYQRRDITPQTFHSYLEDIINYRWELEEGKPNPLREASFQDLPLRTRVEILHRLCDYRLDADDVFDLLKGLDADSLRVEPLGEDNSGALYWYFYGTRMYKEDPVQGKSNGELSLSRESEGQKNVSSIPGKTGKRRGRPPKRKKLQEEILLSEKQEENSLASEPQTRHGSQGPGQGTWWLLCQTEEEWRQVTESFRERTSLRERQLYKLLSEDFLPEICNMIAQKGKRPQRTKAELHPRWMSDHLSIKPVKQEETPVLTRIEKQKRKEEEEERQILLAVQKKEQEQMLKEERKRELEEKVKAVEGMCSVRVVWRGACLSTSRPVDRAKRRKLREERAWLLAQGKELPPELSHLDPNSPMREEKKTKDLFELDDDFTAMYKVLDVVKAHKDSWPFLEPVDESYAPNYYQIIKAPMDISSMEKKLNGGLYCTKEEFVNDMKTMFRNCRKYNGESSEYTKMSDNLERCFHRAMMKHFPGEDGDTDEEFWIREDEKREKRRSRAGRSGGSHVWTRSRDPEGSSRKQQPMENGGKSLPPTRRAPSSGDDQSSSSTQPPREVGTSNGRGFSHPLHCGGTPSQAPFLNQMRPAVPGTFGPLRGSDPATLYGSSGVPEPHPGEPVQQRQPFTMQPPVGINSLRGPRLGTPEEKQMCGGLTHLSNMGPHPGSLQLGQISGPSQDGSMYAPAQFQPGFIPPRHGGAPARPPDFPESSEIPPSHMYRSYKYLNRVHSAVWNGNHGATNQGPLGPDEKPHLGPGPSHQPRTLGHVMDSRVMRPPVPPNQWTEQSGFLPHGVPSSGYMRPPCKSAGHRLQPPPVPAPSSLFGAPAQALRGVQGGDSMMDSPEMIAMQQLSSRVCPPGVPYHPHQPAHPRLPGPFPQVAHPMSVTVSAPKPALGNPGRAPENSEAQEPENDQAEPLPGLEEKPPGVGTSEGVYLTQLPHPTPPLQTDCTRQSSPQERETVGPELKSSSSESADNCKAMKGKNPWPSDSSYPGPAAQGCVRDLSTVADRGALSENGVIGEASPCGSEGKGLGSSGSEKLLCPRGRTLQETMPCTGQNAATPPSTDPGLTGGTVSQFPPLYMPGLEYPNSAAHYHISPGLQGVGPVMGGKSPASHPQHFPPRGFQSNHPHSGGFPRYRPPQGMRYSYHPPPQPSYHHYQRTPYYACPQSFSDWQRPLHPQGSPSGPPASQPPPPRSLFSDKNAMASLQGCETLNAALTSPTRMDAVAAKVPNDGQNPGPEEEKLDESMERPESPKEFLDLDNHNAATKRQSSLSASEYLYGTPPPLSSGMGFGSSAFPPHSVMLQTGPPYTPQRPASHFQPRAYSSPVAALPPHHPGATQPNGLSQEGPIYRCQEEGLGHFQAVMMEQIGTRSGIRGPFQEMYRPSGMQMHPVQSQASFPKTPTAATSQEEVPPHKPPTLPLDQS

[9] = molecular target: T3, ATPase family AAA domain-containing protein 2 (Homo sapiens) (UniProt Q6PL18); test: Inhibition of human partial length ATAD2 (Q981 to R1108 residues) expressed in bacterial expression system at 10 uM measured by BROMOscan assay
T3 sequence (whole entry): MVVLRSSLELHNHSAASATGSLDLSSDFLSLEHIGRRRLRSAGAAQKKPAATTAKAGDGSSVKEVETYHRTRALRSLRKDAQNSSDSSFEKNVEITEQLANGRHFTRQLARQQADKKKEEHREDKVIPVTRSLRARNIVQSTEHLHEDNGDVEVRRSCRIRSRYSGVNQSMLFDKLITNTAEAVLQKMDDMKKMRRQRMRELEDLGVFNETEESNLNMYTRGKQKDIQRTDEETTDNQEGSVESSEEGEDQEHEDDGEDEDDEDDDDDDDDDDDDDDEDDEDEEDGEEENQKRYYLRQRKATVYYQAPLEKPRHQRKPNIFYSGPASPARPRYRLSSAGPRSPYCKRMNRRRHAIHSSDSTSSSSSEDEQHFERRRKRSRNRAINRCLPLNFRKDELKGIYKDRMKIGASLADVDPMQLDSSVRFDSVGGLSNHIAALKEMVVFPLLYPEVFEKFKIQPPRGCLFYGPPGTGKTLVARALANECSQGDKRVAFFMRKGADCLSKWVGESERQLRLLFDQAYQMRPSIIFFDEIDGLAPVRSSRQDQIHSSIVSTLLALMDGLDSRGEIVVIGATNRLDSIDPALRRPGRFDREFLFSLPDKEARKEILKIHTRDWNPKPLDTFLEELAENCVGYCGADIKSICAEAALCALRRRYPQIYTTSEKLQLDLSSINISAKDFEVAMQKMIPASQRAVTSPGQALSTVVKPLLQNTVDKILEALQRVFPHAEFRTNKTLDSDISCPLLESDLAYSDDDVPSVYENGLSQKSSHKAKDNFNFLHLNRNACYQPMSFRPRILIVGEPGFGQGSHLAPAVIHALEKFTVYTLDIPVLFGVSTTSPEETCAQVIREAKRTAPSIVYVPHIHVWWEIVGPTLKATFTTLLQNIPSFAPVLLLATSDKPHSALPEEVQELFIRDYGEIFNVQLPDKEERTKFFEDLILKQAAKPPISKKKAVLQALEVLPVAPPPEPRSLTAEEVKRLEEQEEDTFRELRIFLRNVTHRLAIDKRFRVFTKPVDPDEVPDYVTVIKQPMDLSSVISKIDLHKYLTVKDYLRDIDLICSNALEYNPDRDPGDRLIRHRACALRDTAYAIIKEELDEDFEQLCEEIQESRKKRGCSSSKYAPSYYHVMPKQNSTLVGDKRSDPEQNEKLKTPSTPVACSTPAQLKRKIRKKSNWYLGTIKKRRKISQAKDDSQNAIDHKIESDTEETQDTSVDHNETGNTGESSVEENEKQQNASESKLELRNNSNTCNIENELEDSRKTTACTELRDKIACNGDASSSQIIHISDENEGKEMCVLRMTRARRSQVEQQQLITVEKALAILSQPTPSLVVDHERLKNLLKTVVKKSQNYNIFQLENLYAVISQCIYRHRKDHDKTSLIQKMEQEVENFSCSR

[10] = molecular target: T2, Bromodomain-containing protein 4; test: Inhibition of BRD4 BD2 (unknown origin) measured by TR-FRET assay
[11] = Solubility of the compound by CAD method; format: physicochemical

T1 sequence (P21675 whole entry): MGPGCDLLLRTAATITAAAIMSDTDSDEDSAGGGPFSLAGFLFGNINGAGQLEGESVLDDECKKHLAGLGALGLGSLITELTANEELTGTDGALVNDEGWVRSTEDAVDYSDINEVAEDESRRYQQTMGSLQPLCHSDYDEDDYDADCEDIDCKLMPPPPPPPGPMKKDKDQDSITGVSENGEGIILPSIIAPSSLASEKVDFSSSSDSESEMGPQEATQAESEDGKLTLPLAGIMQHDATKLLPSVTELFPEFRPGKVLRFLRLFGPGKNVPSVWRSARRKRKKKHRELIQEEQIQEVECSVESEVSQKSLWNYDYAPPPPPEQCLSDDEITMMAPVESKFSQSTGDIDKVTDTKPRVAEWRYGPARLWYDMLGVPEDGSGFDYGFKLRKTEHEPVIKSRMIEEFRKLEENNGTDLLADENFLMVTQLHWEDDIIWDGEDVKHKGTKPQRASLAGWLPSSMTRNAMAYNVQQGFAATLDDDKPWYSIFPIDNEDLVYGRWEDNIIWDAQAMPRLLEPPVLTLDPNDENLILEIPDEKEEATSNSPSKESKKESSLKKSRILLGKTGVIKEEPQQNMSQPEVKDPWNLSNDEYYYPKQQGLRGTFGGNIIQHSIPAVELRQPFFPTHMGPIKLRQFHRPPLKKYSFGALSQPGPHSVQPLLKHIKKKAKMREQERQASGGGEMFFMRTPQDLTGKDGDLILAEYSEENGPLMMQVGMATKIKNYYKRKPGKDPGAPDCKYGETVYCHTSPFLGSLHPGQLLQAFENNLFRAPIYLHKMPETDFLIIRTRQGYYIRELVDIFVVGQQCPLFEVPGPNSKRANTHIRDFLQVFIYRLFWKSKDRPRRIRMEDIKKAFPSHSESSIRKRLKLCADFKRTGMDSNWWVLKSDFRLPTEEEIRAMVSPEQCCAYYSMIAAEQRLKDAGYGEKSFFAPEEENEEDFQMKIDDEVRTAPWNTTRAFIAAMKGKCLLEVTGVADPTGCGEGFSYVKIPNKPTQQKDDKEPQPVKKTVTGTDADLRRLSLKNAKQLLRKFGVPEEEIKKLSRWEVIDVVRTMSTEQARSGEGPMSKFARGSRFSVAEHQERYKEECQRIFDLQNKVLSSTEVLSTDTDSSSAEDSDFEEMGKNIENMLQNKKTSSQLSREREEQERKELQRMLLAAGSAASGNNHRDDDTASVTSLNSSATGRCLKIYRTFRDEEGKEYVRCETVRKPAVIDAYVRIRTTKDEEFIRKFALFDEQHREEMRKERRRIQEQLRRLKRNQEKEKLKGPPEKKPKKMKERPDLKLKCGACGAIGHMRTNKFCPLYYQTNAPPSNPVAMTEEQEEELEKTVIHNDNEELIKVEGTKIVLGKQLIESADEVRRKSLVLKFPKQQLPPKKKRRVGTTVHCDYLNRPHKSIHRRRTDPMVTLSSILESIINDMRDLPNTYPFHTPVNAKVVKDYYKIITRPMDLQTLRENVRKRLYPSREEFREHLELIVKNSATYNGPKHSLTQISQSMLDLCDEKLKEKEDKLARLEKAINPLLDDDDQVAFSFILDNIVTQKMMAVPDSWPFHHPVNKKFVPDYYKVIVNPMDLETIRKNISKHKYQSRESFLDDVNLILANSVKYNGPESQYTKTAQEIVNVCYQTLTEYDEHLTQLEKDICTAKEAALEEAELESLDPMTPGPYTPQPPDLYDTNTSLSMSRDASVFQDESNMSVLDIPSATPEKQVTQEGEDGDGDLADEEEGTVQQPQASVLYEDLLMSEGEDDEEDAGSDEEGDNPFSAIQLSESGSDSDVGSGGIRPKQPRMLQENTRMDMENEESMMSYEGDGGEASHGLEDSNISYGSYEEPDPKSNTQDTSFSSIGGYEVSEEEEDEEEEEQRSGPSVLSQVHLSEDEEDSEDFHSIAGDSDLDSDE

Cc1cc2c(C3=CCOCC3)cnc(NC3CCN(C(=O)C(F)(F)CN)CC3)c2[nH]c1=O
IC50 [1]: 39.8 nM | chromatographic logD [2]: 2.7 | IC50 [3]: > 20000 nM | Papp [4]: 6.2 ×10⁻⁶ cm/s | Ki [5]: 0.794 nM | CLint scaled [6]: 20.4 mL/min/kg | Ki [7]: 794 nM | Ki [8]: 1000 nM | inhibition [9]: 24% | IC50 [10]: 5010 nM | solubility [11]: 24 µg/mL (≈ 53.6 µM)
